Measurements as given in patent publication US20140023611A1 (priority 2010, published 2014).

Tests used:
[1] = target: T1, human NaP2b (SLC34A2) (Homo sapiens, UniProt O95436); test: Inhibition of NaP2b-mediated Pi (33P) uptake in transfected HEK293 cells, human NaP2b; assay type: cell-based; conditions: read-out: pIC50 range for human NaP2b (converted)
T1 construct: host or cells: HEK293
T1 sequence (O95436 1-690): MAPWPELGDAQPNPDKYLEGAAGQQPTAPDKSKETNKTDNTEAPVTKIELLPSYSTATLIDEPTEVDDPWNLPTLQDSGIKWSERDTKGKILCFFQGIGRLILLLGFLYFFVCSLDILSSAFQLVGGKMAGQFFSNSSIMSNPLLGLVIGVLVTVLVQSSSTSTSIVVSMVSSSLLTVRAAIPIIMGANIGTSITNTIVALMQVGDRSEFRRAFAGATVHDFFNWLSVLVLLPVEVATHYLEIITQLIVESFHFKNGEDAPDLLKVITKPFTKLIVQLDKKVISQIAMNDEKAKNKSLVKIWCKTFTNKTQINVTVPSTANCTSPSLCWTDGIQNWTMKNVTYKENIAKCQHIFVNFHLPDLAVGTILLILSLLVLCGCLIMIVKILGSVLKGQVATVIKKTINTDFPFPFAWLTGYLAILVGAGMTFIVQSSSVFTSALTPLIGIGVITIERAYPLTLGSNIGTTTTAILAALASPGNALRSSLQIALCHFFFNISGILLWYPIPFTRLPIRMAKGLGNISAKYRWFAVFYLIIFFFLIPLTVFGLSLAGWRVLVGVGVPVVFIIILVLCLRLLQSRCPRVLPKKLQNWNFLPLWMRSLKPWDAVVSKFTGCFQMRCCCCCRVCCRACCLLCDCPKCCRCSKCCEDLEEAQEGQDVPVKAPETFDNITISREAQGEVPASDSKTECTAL
Outline: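 Uptake of 33P-phosphate (100 uM KH2PO4 carrier, sodium vs choline buffer, pH 7.4) measured after 3-30 min at room temperature, with test compound at twelve concentrations from 0.1 nM to 30 uM in duplicate. Cells were HEK293 transfected with mutated human NaP2b (Thr insertion after 37, N39D) and treated with a PiT-silencing agent. pIC50 values from scintillation counts.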

[2] = target: T2, rat NaP2b (SLC34A2) (Rattus norvegicus, UniProt Q9JJ09); test: Inhibition of NaP2b-mediated Pi (33P) uptake in transfected HEK293 cells, rat NaP2b; assay type: cell-based; conditions: 33P Pi uptake, 0.1 mM phosphate, value given as pIC50 range
T2 construct: host or cells: HEK293
T2 sequence (Q9JJ09 1-695): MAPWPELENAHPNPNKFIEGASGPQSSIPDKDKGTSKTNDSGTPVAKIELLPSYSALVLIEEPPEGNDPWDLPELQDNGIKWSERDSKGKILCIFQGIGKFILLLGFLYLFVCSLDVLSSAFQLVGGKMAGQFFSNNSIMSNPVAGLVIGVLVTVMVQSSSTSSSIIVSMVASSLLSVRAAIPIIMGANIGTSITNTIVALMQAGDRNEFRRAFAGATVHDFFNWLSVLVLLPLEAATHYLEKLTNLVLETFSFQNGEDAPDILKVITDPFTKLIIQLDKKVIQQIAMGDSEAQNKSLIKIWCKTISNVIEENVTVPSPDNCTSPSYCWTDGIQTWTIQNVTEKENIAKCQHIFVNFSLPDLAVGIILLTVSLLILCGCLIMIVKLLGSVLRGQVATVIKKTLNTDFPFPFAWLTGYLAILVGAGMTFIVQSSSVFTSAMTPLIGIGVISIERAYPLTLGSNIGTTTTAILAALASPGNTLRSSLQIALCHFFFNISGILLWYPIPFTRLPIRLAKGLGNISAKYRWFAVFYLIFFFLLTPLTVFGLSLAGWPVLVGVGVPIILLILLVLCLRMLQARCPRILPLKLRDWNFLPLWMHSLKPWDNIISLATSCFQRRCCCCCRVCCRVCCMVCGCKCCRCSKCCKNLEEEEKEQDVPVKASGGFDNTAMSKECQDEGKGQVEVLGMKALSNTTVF
Outline: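 The cells transiently expressed NaP2b after Lipofectamine transfection. Each compound was run in duplicate over twelve concentrations, 0.1 nM–30 uM.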

Row | Structure (SMILES) | IC50 [1] [µM] | IC50 [2] [µM]
1 | CCN(CC)c1ccc(NC(=O)c2cccc(CCCOCCOCCOCCOCCNC(=O)N(CCO)CCO)c2)c(-c2cc(C(=O)NCc3cccc(C(F)(F)F)c3)ccn2)c1 [Example 274, 2-(5-(diethylamino)-2-(3-(1-hydroxy-3-(2-hydroxyethyl)-4-oxo-8,11,14,17-tetraoxa-3,5-diazaicosan-20-yl)benzamido)phenyl)-N-(3-(trifluoromethyl)benzyl)isonicotinamide] | 1 to 7.94 | 1 to 7.94
2 | COCCOCCOCCOCCOCCOCCOCCN(C)C(=O)CCOCCOCCOCCOCCCc1cccc(C(=O)Nc2ccc(N3CCCCC3)cc2-c2cc(C(=O)NCc3cccc(C(F)(F)F)c3)ccn2)c1 [Example 276] | 1 to 7.94 | 1 to 7.94
3 | O=C(NCc1cccc(C(F)(F)F)c1)c1ccnc(-c2cc(N3CCCCC3)ccc2NC(=O)c2cccc(CCCOCCOCCOCCOCCC(=O)N(CCO)CCO)c2)c1 [Example 277] | 1 to 7.94 | 1 to 7.94
4 | O=C(CCOCCOCCOCCOCCCc1cccc(C(=O)Nc2ccc(N3CCCCC3)cc2-c2cc(C(=O)NCc3cccc(C(F)(F)F)c3)ccn2)c1)NC(CO)(CO)CO [Example 278] | 1 to 7.94 | 1 to 7.94
5 | CCN(CC)c1ccc(NC(=O)c2cccc(CCCOCCOCCOCCOCCC(=O)NCCOCCOCCOCCOCCOCCOCCOCCOC)c2)c(-c2cc(C(=O)N[C@H]3CCCc4ccccc43)ccn2)c1 [Example 279] | 1 to 7.94 | 1 to 7.94
6 | CCN(CC)c1ccc(NC(=O)c2cccc(CCCOCCOCCOCCOCCC(=O)N(C)CCOCCOCCOCCOCCOCCOCCOC)c2)c(-c2cc(C(=O)N[C@H]3CCCc4ccccc43)ccn2)c1 [Example 280] | < 1 | < 1
7 | CCN(CC)c1ccc(NC(=O)c2cccc(CCCOCCOCCOCCOCCC(=O)N(CCO)CCO)c2)c(-c2cc(C(=O)N[C@H]3CCCc4ccccc43)ccn2)c1 [Example 282] | 1 to 7.94 | < 1
8 | CCN(CC)c1ccc(NC(=O)c2cccc(CCCOCCOCCOCCOCCC(=O)NC(CO)(CO)CO)c2)c(-c2cc(C(=O)N[C@H]3CCCc4ccccc43)ccn2)c1 [Example 283] | 1 to 7.94 | < 1
9 | CC(C)(C)OC(=O)CCOCCOCCOCCOCCCc1cccc(C(=O)Nc2ccc(OC3CCC3)cc2-c2cc(C(=O)N[C@H]3CCCc4ccccc43)ccn2)c1 [Example 284, (S)-tert-butyl 16-(3-((4-cyclobutoxy-2-(4-((1,2,3,4-tetrahydronaphthalen-1-yl)carbamoyl)pyridin-2-yl)phenyl)carbamoyl)phenyl)-4,7,10,13-tetraoxahexadecan-1-oate] | 1 to 7.94 | 1 to 7.94
10 | CCN(CC)c1ccc(NC(=O)c2cccc(CCCOCCOCCOCCOCCNS(=O)(=O)c3cccc(C(=O)O)c3)c2)c(-c2cc(C(=O)NCc3cccc(C(F)(F)F)c3)ccn2)c1 [Example 289, 3-(N-(15-(3-(4-(diethylamino)-2-(4-(3-(trifluoromethyl)benzylcarbamoyl)pyridin-2-yl)phenylcarbamoyl)phenyl)-3,6,9,12-tetraoxapentadecyl)sulfamoyl)benzoic acid] | 1 to 7.94 | 1 to 7.94
11 | CCN(CC)c1ccc(NC(=O)c2cccc(CCCOCCOCCOCCOCCC(=O)N3CCN(S(=O)(=O)c4ccc(C(=O)O)cc4)CC3)c2)c(-c2cc(C(=O)NCc3cccc(C(F)(F)F)c3)ccn2)c1 [Example 290, 4-(4-(16-(3-(4-(diethylamino)-2-(4-(3-(trifluoromethyl)benzylcarbamoyl)pyridin-2-yl)phenylcarbamoyl)phenyl)-4,7,10,13-tetraoxahexadecane)piperazin-1-ylsulfonyl)benzoic acid] | 1 to 7.94 | 10 to 31.6
12 | CCN(CC)c1ccc(NC(=O)c2cccc(CCCOCCOCCOCCOCCC(=O)N3CCN(S(=O)(=O)c4ccc(C)cc4)CC3)c2)c(-c2cc(C(=O)NCc3cccc(C(F)(F)F)c3)ccn2)c1 [Example 291, 2-(5-(diethylamino)-2-(3-(16-oxo-16-(4-tosylpiperazin-1-yl)-4,7,10,13-tetraoxahexadecyl)benzamido)phenyl)-N-(3-(trifluoromethyl)benzyl)isonicotinamide] | < 1 | 1 to 7.94
13 | CCN(CC)c1ccc(NC(=O)c2cccc(CCCOCCOCCOCCOCCC(=O)N3CCN(S(=O)(=O)C(C)C)CC3)c2)c(-c2cc(C(=O)NCc3cccc(C(F)(F)F)c3)ccn2)c1 [Example 292, 2-(5-(diethylamino)-2-(3-(16-(4-(isopropylsulfonyl)piperazin-1-yl)-16-oxo-4,7,10,13-tetraoxahexadecyl)benzamido)phenyl)-N-(3-(trifluoromethyl)benzyl)isonicotinamide] | < 1 | 1 to 7.94
14 | CCN(CC)c1ccc(NC(=O)c2cccc(CCCOCCOCCOCCOCCC(=O)O)c2)c(-c2cc(C(=O)N[C@H]3CCCc4ccccc43)ccn2)c1 [Example 302, (S)-16-(3-(4-(diethylamino)-2-(4-(1,2,3,4-tetrahydronaphthalen-1-ylcarbamoyl)pyridin-2-yl)phenylcarbamoyl)phenyl)-4,7,10,13-tetraoxahexadecan-1-oic acid] | < 1 | < 1
15 | O=C(O)CCOCCOCCOCCOCCCc1cccc(C(=O)Nc2ccc(N3CCCCC3)cc2-c2cc(C(=O)NCc3cccc(C(F)(F)F)c3)ccn2)c1 [Example 303, 16-(3-(4-(piperidin-1-yl)-2-(4-(3-(trifluoromethyl)benzylcarbamoyl)pyridin-2-yl)phenylcarbamoyl)phenyl)-4,7,10,13-tetraoxahexadecan-1-oic acid] | < 1 | 1 to 7.94
16 | CCN(CC)c1ccc(NC(=O)c2cccc(CCCOCCOCCOCCOCCOCCOCCC(=O)O)c2)c(-c2cc(C(=O)N[C@H]3CCCc4ccccc43)ccn2)c1 [Example 304, (S)-22-(3-(4-(diethylamino)-2-(4-(1,2,3,4-tetrahydronaphthalen-1-ylcarbamoyl)pyridin-2-yl)phenylcarbamoyl)phenyl)-4,7,10,13,16,19-hexaoxadocosan-1-oic acid] | < 1 | < 1
17 | CCN(CC)c1ccc(NC(=O)c2cccc(CCCOCCOCCOCCOCCOCCC(=O)O)c2)c(-c2cc(C(=O)N[C@H]3CCCc4ccccc43)ccn2)c1 [Example 306, (S)-19-(3-(4-(diethylamino)-2-(4-(1,2,3,4-tetrahydronaphthalen-1-ylcarbamoyl)pyridin-2-yl)phenylcarbamoyl)phenyl)-4,7,10,13,16-pentaoxanonadecan-1-oic acid] | < 1 | < 1
18 | CCN(CC)c1ccc(NC(=O)c2cccc(CCCOCCOCCOCCOCCOCC(CO)(CO)CO)c2)c(-c2cc(C(=O)NCc3cccc(C(F)(F)F)c3)ccn2)c1 [Example 332, N-(3-(trifluoromethyl)benzyl)-2-(5-(diethylamino)-2-(3-(3-(2-(2-(2-(2-(3-hydroxy-2,2-bis(hydroxymethyl)propoxy)ethoxy)ethoxy)ethoxy)ethoxy)propyl)benzamido)phenyl)isonicotinamide] | < 1 | < 1
19 | CCN(CC)c1ccc(NC(=O)c2cccc(C(=O)N(C)CCN(CCOC)CCOCCOCCOCCC(=O)NC(C)(C)C)c2)c(-c2cc(C(=O)NCc3cccc(C(F)(F)F)c3)ccn2)c1 [Example 337, N^1-(4-(Diethylamino)-2-(4-(3-(trifluoromethyl)benzylcarbamoyl)pyridin-2-yl)phenyl)-N3-(3-(2-methoxyethyl)-17,17-dimethyl-15-oxo-6,9,12-trioxa-3,16-diazaoctadecyl)-N^3-methylisophthalamide] | 1 to 7.94 | 1 to 7.94
